Experimental data: US20140072557A1, “MEDICINAL AGENT FOR SUPPRESSING MALIGNANT TUMOR METASTASIS” (priority 2011, published 2014)

Assays:
A549 cells [1] = assay: Intracellular cGMP level in A549 cells on natriuretic peptide stimulus; format: cell-based; settings: 1×10^−11 M to 1×10^−6 M, 10 minutes
Experimental: The A549 cells were cultured in a 24-well dish at 4×10^4 cells/well, and the culture medium was replaced with DMEM culture medium free from FCS the next day. To the culture medium, solutions of hANP, hBNP, and hCNP (final concentration: ten-fold serial dilution from 1×10^−11 M to 1×10^−6 M, the same amount of physiological saline was used as a control) were separately added. After 10 minutes passed, 400 μL of cooled 70% ethanol (containing 0.1 N hydrochloric acid) was added, and ultrasonication was performed for a short time. The treated solution was lyophilized, and the cGMP level was measured using Cyclic GMP Assay kit (made by Yamasa Corp.).

A549 cells [2] = assay: EMT induced by TGF-β1 in A549 cells (morphology, quantitative RT-PCR); format: cell-based; settings: 1 μM hANP, TGF-β1 stimulus
Experimental: Using a 6-well dish, the A549 cells were cultured at 1×10^5 cells/well, and the culture medium was replaced with DMEM culture medium free from FBS the next day. After 24 hours of culture, the cells were used in the following experiment.
An ANP group (ANP solution was added (final concentration: 1 μM)) and a control group (the same amount of physiological saline was added) were prepared, and after 2 hours from the addition, TGF-β1 was added so that the final concentration would be 0.125, 0.25, 0.5, 1.0, and 2.0 ng/mL. After 24 hours had passed, the morphological change in the cells was observed under a microscope and photographed (FIG. 3).
Then, total RNA was collected using TRIZOL total RNA isolation reagent (made by Invitrogen), cDNA was synthesized using reverse transcriptase, and the mRNA levels of E-cadherin, N-cadherin, VEGF-A, PDGF-B, TNF-α, and IL-6 were measured by quantitative RT-PCR. It is known that in EMT, the expression of E-cadherin decreases while the expression of N-cadherin increases. The expression ratio of N-cadherin/E-cadherin is considered to be useful as an indicator of the degree of EMT.

mouse melanoma B16-F10 = assay: Mouse tail vein injection metastasis test, mouse melanoma B16-F10; format: in vivo, mice; settings: 0.5 μg/kg/min by subcutaneous osmotic pump, 2 weeks
Experimental: 6-week-old male […] mice were used (purchased from Japan SLC, Inc.). Mouse melanoma B16-F10 was purchased from ATCC, and cultured in DMEM (Life Technologies Corp.) containing 10% FCS under 5% CO2 at 37° C. The cells in a subconfluent state were treated with EDTA-trypsin, centrifuged, and then suspended in serum free DMEM so as to be 5×10^6 cells/mL. The melanoma cell suspension (100 μL/mouse, 5×10^5 cells) was injected to the tail vein of the mice. The osmotic pumps used were MODEL2002 (for 14-day administration) made by ALZET (Cupertino, Calif,.).
Mice into which an osmotic pump containing 0.9% physiological saline was subcutaneously implanted in the back were assigned to the control group. Similarly, an osmotic pump containing hANP prepared for administration at 0.5 μg/kg/min was subcutaneously implanted into each mouse in the ANP group, an osmotic pump containing mouse BNP prepared for administration at 0.5 μg/kg/min was subcutaneously implanted into each mouse in the BNP group, and an osmotic pump containing hCNP-22 prepared for administration at 2.5 μg/kg/min was subcutaneously implanted into each mouse in the CNP group. To the mice in the sildenafil group, sildenafil citrate at a dosage of 20 mg/kg was intraperitoneally administered once daily. […]

[3] = system: cancer cells (A549, H460, H520, H358 cells); assay: Combined effect of hANP and cisplatin on apoptosis induction in cancer cells; format: cell-based; settings: hANP 1 or 10 μM with cisplatin 1-30 μM, 48 hours
Experimental: As the cisplatin, CISPLATIN inj. “Maruko” (trade name, Nichi-Iko Pharmaceutical) was used.
Using a 96-well dish, the A549 cells were cultured at 1×10^4 cells/well. The next day, the culture medium was replaced with DMEM culture medium free from FBS. After 24-hours culture, the cells were divided into groups (control group, cisplatin single administration group, 1 μM hANP group, cisplatin+1 μM hANP group, 10 μM hANP group, and cisplatin+10 μM hANP group), and the following experiment was conducted.
To the culture medium, for the hANP addition groups, a hANP solution prepared so that the final concentration of hANP would be 1 or 10 μM was added, whereas for the control group and the cisplatin single administration group, the same amount of physiological saline was added. Further, for the cisplatin addition groups, a cisplatin solution prepared so that the final concentration of cisplatin would be 1, 5, 10, 20, or 30 μM was added (for the control group and the hANP single administration group, the same amount of physiological saline was added). […] 48 hours later, trypan blue staining was performed and the cell viability (number of living cells/total number of all cells) was determined with the use of an automatic cell counter Countess (registered trademark) (Invitrogen). […]

A549 cells [4] = assay: Apoptosis induction, cell viability by trypan blue staining, A549 cells; format: cell-based; settings: hANP 1, 5, 10 μM added 4 times, 48 hours
Experimental: Using a 96-well dish, the A549 cells were cultured at 1×10^4 cells/well. The culture medium was replaced with DMEM culture medium free from FBS the next day, and after 24-hours culture, the following experiment was conducted.
To the culture medium, a hANP solution prepared by serial dilution was added so that the final concentration of hANP would be 1, 5, or 10 μM (for the control group, the same amount of physiological saline was added). Further, 2, 4, and 6 hours later, the same amounts of the hANP solutions at the same concentrations were added (for the control group, the same amount of physiological saline was added) (4 times in total). 48 hours later, trypan blue staining was performed and the cell viability (number of living cells/total number of all cells) was determined with the use of an automatic cell counter Countess (registered trademark) (Invitrogen).

Q: Which results are given for `CC[C@H](C)[C@@H]1NC(=O)[C@H](CCCNC(=N)N)NC(=O)[C@H](CC(=O)O)NC(=O)[C@H](CCSC)NC(=O)[C@H](CCCNC(=N)N)NC(=O)CNC(=O)CNC(=O)[C@H](Cc2ccccc2)NC(=O)[C@@H](NC(=O)[C@H](CO)NC(=O)[C@H](CO)NC(=O)[C@H](CCCNC(=N)N)NC(=O)[C@H](CCCNC(=N)N)NC(=O)[C@H](CC(C)C)NC(=O)[C@@H](N)CO)CSSC[C@@H](C(=O)N[C@@H](CC(N)=O)C(=O)N[C@@H](CO)C(=O)N[C@@H](Cc2ccccc2)C(=O)N[C@@H](CCCNC(=N)N)C(=O)N[C@@H](Cc2ccc(O)cc2)C(=O)O)NC(=O)CNC(=O)[C@H](CC(C)C)NC(=O)CNC(=O)[C@H](CO)NC(=O)[C@H](CCC(N)=O)NC(=O)[C@H](C)NC(=O)CNC1=O` [hANP, carperitide]?
A: intracellular cGMP level (A549 cells [1]): increased the intracellular cGMP level of the A549 cells in a concentration-dependent manner; expression of E-cadherin under TGF-β1 stimulus (A549 cells [2]): inhibited decrease; expression of N-cadherin induced by TGF-β1 (A549 cells [2]): significantly suppressed increase; expression ratio of N-cadherin/E-cadherin (A549 cells [2]): significantly decreased; gene expression of IL-6 (mRNA level) (A549 cells [2]): significantly suppressed; gene expression of PDGF-B (mRNA level) (A549 cells [2]): significantly suppressed; gene expression of TNF-α (mRNA level) (A549 cells [2]): significantly suppressed; gene expression of VEGF-A (mRNA level) (A549 cells [2]): significantly suppressed; morphological change associated with EMT induced by TGF-β1 (A549 cells [2]; 24 hours): significantly suppressed; lung metastasis of melanoma (number of nodules) (mouse melanoma B16-F10): significantly suppressed; apoptosis-inducing activity in combination with cisplatin [3]: enhanced; number of living cancer cells (cell viability) (A549 cells [4]): decreased in a hANP-concentration-dependent manner
